Experimental findings from ChEMBL document CHEMBL1201862, “PubChem BioAssay data set” (2004) are described below.

Calls of active or inactive are those of the source.

For one assay, the target named is Cytochrome P450 3A4 (Homo sapiens, UniProt P08684). The note with it: Potency.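 Note: confirmatory qHTS run detecting inhibitors and substrates of CYP3A4.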
A further assay concerns the target Protein Wnt-3a (Mus musculus, UniProt P27467). The assay is described as follows: antagonism of Wnt3a pathway luciferase reporter – Wnt-LIGHT cells, luminescence, selectivity assay for Gli-SUFU antagonist project, dose response (AID 651570).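 Note: Wnt-LIGHT reporter cells stimulated with conditioned medium from Wnt3a-producing cells.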 The note with it: read-out: IC50_Mean. The class given is functional. (Reporter assays use an easily measured gene product as a stand-in for the process of interest.)

The nature of assay [1]: intracellular Trypanosoma cruzi inhibitors in host cells – cell-based, plate reader, cherry-pick samples, set 3, dose response (AID 651818).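 Note: compounds incubated with infected cells for about four days.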 The class given is functional.
Assay [2] has as its target T1, Short transient receptor potential channel 4 (Mus musculus, UniProt Q9QUQ5).
T1 sequence (Q9QUQ5 whole entry): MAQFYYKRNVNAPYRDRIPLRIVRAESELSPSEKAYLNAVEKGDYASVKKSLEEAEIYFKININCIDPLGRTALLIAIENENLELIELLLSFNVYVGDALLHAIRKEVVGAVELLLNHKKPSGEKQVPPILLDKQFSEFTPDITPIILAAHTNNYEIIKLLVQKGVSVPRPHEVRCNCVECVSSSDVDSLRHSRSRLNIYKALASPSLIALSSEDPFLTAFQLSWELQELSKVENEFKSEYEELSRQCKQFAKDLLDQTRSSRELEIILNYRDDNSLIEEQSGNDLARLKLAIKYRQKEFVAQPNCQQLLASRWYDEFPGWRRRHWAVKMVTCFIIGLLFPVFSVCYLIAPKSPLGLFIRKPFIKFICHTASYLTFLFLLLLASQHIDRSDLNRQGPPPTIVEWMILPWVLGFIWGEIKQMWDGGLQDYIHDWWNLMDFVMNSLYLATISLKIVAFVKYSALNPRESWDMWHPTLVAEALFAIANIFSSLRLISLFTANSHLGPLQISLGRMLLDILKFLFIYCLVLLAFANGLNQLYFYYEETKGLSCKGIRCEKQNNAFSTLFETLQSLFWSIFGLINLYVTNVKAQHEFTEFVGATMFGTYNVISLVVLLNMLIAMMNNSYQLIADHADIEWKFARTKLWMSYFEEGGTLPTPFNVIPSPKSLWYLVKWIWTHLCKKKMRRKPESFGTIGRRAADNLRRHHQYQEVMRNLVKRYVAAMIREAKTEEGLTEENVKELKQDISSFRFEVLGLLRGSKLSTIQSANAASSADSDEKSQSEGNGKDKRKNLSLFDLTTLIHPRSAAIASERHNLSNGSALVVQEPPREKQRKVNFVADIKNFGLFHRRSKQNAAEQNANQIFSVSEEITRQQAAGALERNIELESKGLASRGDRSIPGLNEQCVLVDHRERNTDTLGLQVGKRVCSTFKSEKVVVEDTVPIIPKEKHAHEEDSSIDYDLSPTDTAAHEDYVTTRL
The assay is described as follows: block of DAMGO-driven TRPC4 calcium entry – cell-based, HEK293 TRPC4/mu-opioid, Fluo-4 calcium, dose response (AID 434942).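 Note: potency of inhibitors blocking the TRPC4 calcium response.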 The class given is functional.

The target in assay [3] is Luciferin 4-monooxygenase (Photinus pyralis, UniProt P08659). The assay is described as follows: inhibition of purified Photinus pyralis luciferase – biochemical, luminescence, dose response (AID 1891).
Assay [4] in a line: Luminescence Cell-Based Dose Confirmation HTS to Identify Inhibitors of Platelet Dense Granule Release. [Related pubchem assays: 1663 (Primary HTS), 1678 (Summary of Project)]. It counts as functional.
Assay [5] deals with HEK293. The assay is described as follows: inhibition of NOD1-driven NF-kB reporter – cell-based, luminescence, uHTS, primary screen (AID 1578). It counts as functional. The note with it: Homo sapiens.
In assay [6] the test system is HEK293. Description: cells. The class given is functional, cell-based. The note with it: Homo sapiens.
Assay [7] deals with HEK293. The assay is described as follows: cells. It counts as functional, cell-based. Conditions: Homo sapiens. This is another data set of the same source.
Assay [8] deals with HEK293. The assay is described as follows: NOD2 signaling inhibitors in MDP-stimulated cells, cell-based, uHTS, luminescence (AID 2001). It counts as functional. The note with it: Homo sapiens.
Assay [9] can be described thus: HEK-293T viability loss after treatment – luminescence, T-cell screen hits, cytotoxicity control for TCR NF-kB inhibitor project, dose response (AID 489026).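 Note: cells exposed to compound about 14 hours before the viability readout.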 The class given is functional, cell-based.

Cytochrome P450 3A4, sequence (P08684 whole entry): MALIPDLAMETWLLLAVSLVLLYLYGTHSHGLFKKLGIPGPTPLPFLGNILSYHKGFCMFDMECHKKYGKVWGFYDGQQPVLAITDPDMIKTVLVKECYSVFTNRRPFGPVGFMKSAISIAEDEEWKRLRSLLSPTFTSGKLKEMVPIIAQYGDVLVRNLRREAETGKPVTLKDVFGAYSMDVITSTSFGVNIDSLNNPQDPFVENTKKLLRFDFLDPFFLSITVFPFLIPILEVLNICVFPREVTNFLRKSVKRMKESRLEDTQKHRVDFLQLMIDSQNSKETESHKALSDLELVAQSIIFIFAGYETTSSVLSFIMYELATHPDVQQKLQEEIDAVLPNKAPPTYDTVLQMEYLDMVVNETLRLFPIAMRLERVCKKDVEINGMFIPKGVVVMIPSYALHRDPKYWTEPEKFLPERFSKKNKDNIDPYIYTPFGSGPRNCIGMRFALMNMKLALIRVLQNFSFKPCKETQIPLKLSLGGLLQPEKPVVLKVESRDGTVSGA
Protein Wnt-3a, sequence (P27467 whole entry): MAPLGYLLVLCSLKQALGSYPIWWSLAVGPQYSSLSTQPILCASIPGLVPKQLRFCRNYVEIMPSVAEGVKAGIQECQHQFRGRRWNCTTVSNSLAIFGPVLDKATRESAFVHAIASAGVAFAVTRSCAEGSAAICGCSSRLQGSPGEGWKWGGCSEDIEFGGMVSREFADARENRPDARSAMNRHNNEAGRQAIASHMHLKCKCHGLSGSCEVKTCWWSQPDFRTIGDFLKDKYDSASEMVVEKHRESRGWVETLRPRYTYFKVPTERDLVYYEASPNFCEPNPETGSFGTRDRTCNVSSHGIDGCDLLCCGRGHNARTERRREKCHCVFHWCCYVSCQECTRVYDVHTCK
Luciferin 4-monooxygenase, sequence (P08659 whole entry): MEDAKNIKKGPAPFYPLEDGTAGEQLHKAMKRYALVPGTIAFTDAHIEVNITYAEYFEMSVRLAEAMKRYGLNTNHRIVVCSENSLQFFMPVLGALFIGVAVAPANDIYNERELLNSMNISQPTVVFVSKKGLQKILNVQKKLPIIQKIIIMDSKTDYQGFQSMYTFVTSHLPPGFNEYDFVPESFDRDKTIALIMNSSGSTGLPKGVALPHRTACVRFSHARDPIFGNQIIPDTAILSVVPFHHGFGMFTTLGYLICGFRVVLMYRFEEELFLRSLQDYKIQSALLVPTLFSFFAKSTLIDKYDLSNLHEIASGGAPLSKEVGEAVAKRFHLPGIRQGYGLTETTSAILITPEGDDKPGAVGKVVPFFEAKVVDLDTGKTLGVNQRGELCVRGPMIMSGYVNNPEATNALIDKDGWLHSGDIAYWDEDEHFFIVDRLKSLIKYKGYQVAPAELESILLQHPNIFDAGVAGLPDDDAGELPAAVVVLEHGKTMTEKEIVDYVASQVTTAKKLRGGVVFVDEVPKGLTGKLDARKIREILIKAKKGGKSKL

With `CC1CC(O)[C@]2(O)[C@]13CC(=O)OC[C@@]2(C)[C@@](C)(O)C(=O)C3` (stereo partly drawn), the AC50 on Cytochrome P450 3A4 is 31.6 µM (inconclusive).
`Cn1nc(CC(=O)NCc2ccc(C(F)(F)F)cc2)c2ccccc2c1=O`: the IC50 on Protein Wnt-3a was 1.09 µM (active).
As for `CC(=O)C1CCC2C3CC(C)C4=CC(=O)CC[C@@]4(C)C3C(O)C[C@@]12C` (stereo partly drawn), the concentration at half-maximal activity (AC50) at Cytochrome P450 3A4 was 31.6 µM (inconclusive).
Regarding `C[C@H]1CN([C@@H](C)CO)C(=O)c2cccc(NC(=O)C3CC3)c2O[C@@H]1CN(C)Cc1ccc(Oc2ccccc2)cc1`, in assay [1], the AC50 was 3.64 µM (active).
Still for that read-out and setting: in the case of `COc1ccc(CN(C)C[C@H]2Oc3ccc(NC(=O)Cc4cn(C)c5ccccc45)cc3CC(=O)N([C@@H](C)CO)C[C@@H]2C)cc1` it was 3.08 µM (active).
Regarding `COC(C1CCCCC1)C(C)C(OCc1cccc(Br)c1)C(C)CO` (stereo not drawn), the AC50 at Cytochrome P450 3A4 was 3.16 µM (inconclusive).
In the case of `CCN(CC)Cc1cc(CCNC(=O)c2ccc(Cl)cc2)ccc1O`, the 50% effective concentration (EC50) in [2] is 4.73 µM (active).
In the case of `CCCCC(=O)N(c1ccc(C(=O)O)cc1)c1nc(-c2ccc(Cl)cc2)c(CC)s1`, the EC50 in assay [3] is > 112 µM (not active); in assay [4], > 112 µM (not active); in assay [2] it was 10.6 µM (active).
For `COc1cc(/C=N/Nc2nc3c(c(=O)n(C)c(=O)n3C)n2Cc2ccccc2)ccc1OC(=O)c1ccco1`, the EC50 in the assay on HEK293 [5] was 5.22 µM (active). Further, the IC50 with HEK293 [6] is 3.73 µM (active); with HEK293 [7], 12.3 µM (active); in the assay on HEK293 [8], 5.98 µM (active).
With `CC(C)(C)OC(=O)NCCCCCc1cn(CC(=O)NCCCCCCCCCCC(=O)N2CCN(C(=O)OC(C)(C)C)CC2)nn1`, the IC50 in assay [9] was > 80 µM (inactive); at Protein Wnt-3a it was 21.9 µM (inactive).
For the compound `CC[C@]1(O)CC(O[C@@H]2CC(N(C)C)C(O)C(C)O2)c2c(cc3c(c2O)C(=O)c2c(O)cccc2C3=O)C1C(=O)OC` (stereo partly drawn), the AC50 on Cytochrome P450 3A4 is 39.8 µM (inconclusive).
On to `OCCNCc1cc(Br)ccc1OCc1ccc(F)cc1`, for which the EC50 in [2] is 1.88 µM (active).

Usually AC50 stands for the midpoint of the concentration-response curve, whichever way the signal moves. As a reminder, the EC50 is the concentration that produces a half-maximal response.
